Data reported in publication PMC8160969, “Organoruthenium Complexes with Benzo-Fused Pyrithiones Overcome Platinum Resistance in Ovarian Cancer Cells” (Cancers, 2021).

Biological target: T1, thioredoxin reductase (TrxR) (Rattus norvegicus, UniProt O89049)
T1 construct: gene Txnrd1; commercially available rat liver TrxR
T1 sequence (O89049 1-499): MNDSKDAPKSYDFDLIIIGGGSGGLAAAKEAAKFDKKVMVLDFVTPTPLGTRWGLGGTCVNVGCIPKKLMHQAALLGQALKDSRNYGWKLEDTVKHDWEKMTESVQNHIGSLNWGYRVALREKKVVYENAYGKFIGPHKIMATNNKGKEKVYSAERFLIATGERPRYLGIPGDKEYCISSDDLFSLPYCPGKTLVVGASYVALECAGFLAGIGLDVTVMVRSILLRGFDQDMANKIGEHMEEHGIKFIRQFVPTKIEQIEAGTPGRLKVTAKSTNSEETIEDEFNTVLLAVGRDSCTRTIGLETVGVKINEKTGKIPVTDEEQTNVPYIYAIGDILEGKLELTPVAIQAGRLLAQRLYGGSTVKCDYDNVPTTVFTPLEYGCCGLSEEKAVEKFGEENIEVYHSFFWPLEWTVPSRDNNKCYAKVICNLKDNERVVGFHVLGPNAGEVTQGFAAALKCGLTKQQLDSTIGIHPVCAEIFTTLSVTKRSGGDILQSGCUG
Assay: DTNB reduction assay with NADPH and rat liver TrxR, […] min exposure, absorbance at […] nm
Assay type: biochemical

SMILES: Cc1ccc(C(C)C)cc1.[Cl][Ru-]1[O]N2C=Cc3ccccc3C2=[S+]1 [1a, organoruthenium(II) chlorido complex 1a]
- IC50: 4.1 ± 0.16 µM
